System: gene expression in C. difficile 630Δerm
Test: RNA-seq, genes differentially expressed in LL-37

CC[C@H](C)[C@H](NC(=O)[C@H](CCCCN)NC(=O)[C@H](CCC(=O)O)NC(=O)[C@H](CCCCN)NC(=O)[C@H](CO)NC(=O)[C@H](CCCCN)NC(=O)[C@H](CCCNC(=N)N)NC(=O)[C@H](Cc1ccccc1)NC(=O)[C@H](Cc1ccccc1)NC(=O)[C@H](CC(=O)O)NC(=O)CNC(=O)[C@H](CC(C)C)NC(=O)[C@@H](N)CC(C)C)C(=O)NCC(=O)N[C@@H](CCCCN)C(=O)N[C@@H](CCC(=O)O)C(=O)N[C@@H](Cc1ccccc1)C(=O)N[C@@H](CCCCN)C(=O)N[C@@H](CCCNC(=N)N)C(=O)N[C@H](C(=O)N[C@H](C(=O)N[C@@H](CCC(N)=O)C(=O)N[C@@H](CCCNC(=N)N)C(=O)N[C@H](C(=O)N[C@@H](CCCCN)C(=O)N[C@@H](CC(=O)O)C(=O)N[C@@H](Cc1ccccc1)C(=O)N[C@@H](CC(C)C)C(=O)N[C@@H](CCCNC(=N)N)C(=O)N[C@@H](CC(N)=O)C(=O)N[C@@H](CC(C)C)C(=O)N[C@H](C(=O)N1CCC[C@H]1C(=O)N[C@@H](CCCNC(=N)N)C(=O)N[C@H](C(=O)N[C@@H](CCC(=O)O)C(=O)N[C@@H](CO)C(=O)O)[C@@H](C)O)C(C)C)[C@@H](C)CC)C(C)C)[C@@H](C)CC [LL-37]
CD630_18890 fold change in LL-37 (2 µg/ml LL-37, BHIS): 4.54 | CD630_18900 fold change in LL-37 (2 µg/ml LL-37, BHIS): 3.60 | CD630_19120 (eutA) fold change in LL-37 (2 µg/ml LL-37, BHIS): 0.20 | CD630_19150 (eutL) fold change in LL-37 (2 µg/ml LL-37, BHIS): 0.21 | CD630_19180 (eutK) fold change in LL-37 (2 µg/ml LL-37, BHIS): 0.40 | CD630_19210 fold change in LL-37 (2 µg/ml LL-37, BHIS): 0.48 | CD630_19220 (eutN) fold change in LL-37 (2 µg/ml LL-37, BHIS): 0.25 | CD630_19440 fold change in LL-37 (2 µg/ml LL-37, BHIS): 2.03 | CD630_19670 fold change in LL-37 (2 µg/ml LL-37, BHIS): 2.01 | CD630_20140 (ilvD) fold change in LL-37 (2 µg/ml LL-37, BHIS): 2.90 | CD630_20160 fold change in LL-37 (2 µg/ml LL-37, BHIS): 0.26 | CD630_20270 fold change in LL-37 (2 µg/ml LL-37, BHIS): 2.69 | CD630_20280 (racX) fold change in LL-37 (2 µg/ml LL-37, BHIS): 2.39 | CD630_20451 fold change in LL-37 (2 µg/ml LL-37, BHIS): 0.46 | CD630_20751 fold change in LL-37 (2 µg/ml LL-37, BHIS): 2.21 | CD630_20910 fold change in LL-37 (2 µg/ml LL-37, BHIS): 2.49 | CD630_21270 fold change in LL-37 (2 µg/ml LL-37, BHIS): 2.34 | CD630_21430 fold change in LL-37 (2 µg/ml LL-37, BHIS): 0.48 | CD630_21510 fold change in LL-37 (2 µg/ml LL-37, BHIS): 0.48 | CD630_21640 (ldh) fold change in LL-37 (2 µg/ml LL-37, BHIS): 2.95 | CD630_21710 fold change in LL-37 (2 µg/ml LL-37, BHIS): 0.34 | CD630_21930 (cwp24) fold change in LL-37 (2 µg/ml LL-37, BHIS): 2.54 | CD630_22010 fold change in LL-37 (2 µg/ml LL-37, BHIS): 0.40 | CD630_22330 (asrA) fold change in LL-37 (2 µg/ml LL-37, BHIS): 2.43 | CD630_23090 fold change in LL-37 (2 µg/ml LL-37, BHIS): 2.29 | CD630_23300 (xpt) fold change in LL-37 (2 µg/ml LL-37, BHIS): 0.49 | CD630_23310 (mtlD) fold change in LL-37 (2 µg/ml LL-37, BHIS): 0.12 | CD630_23320 (mtlF) fold change in LL-37 (2 µg/ml LL-37, BHIS): 0.12 | CD630_23330 (mtlR) fold change in LL-37 (2 µg/ml LL-37, BHIS): 0.14 | CD630_23340 (mtlA) fold change in LL-37 (2 µg/ml LL-37, BHIS): 0.15 | CD630_23380 (4hbD) fold change in LL-37 (2 µg/ml LL-37, BHIS): 12.95 | CD630_23390 (cat2) fold change in LL-37 (2 µg/ml LL-37, BHIS): 13.27 | CD630_23400 fold change in LL-37 (2 µg/ml LL-37, BHIS): 13.14 | CD630_23410 (abfD) fold change in LL-37 (2 µg/ml LL-37, BHIS): 14.81 | CD630_23420 (sucD) fold change in LL-37 (2 µg/ml LL-37, BHIS): 12.71 | CD630_23430 (cat1) fold change in LL-37 (2 µg/ml LL-37, BHIS): 11.85 | CD630_23440 fold change in LL-37 (2 µg/ml LL-37, BHIS): 10.85 | CD630_23700 (nadC) fold change in LL-37 (2 µg/ml LL-37, BHIS): 0.42 | CD630_23710 (nadB) fold change in LL-37 (2 µg/ml LL-37, BHIS): 0.40 | CD630_23720 (nadA) fold change in LL-37 (2 µg/ml LL-37, BHIS): 0.40 | CD630_23790 (buk2) fold change in LL-37 (2 µg/ml LL-37, BHIS): 3.13 | CD630_23800 (iorB) fold change in LL-37 (2 µg/ml LL-37, BHIS): 10.81 | CD630_23810 (iorA) fold change in LL-37 (2 µg/ml LL-37, BHIS): 13.66 | CD630_23820 fold change in LL-37 (2 µg/ml LL-37, BHIS): 13.76 | CD630_24291 fold change in LL-37 (2 µg/ml LL-37, BHIS): 0.23 | CD630_24610 (dnaK) fold change in LL-37 (2 µg/ml LL-37, BHIS): 0.48 | CD630_24620 (grpE) fold change in LL-37 (2 µg/ml LL-37, BHIS): 0.41 | CD630_24630 (hrcA) fold change in LL-37 (2 µg/ml LL-37, BHIS): 0.49 | CD630_25090 fold change in LL-37 (2 µg/ml LL-37, BHIS): 0.40 | CD630_25100 fold change in LL-37 (2 µg/ml LL-37, BHIS): 0.48 | CD630_25110 fold change in LL-37 (2 µg/ml LL-37, BHIS): 0.48 | CD630_25150 fold change in LL-37 (2 µg/ml LL-37, BHIS): 0.38 | CD630_25160 (ansB) fold change in LL-37 (2 µg/ml LL-37, BHIS): 0.44 | CD630_25171 fold change in LL-37 (2 µg/ml LL-37, BHIS): 2.04 | CD630_25560 fold change in LL-37 (2 µg/ml LL-37, BHIS): 4.24 | CD630_26140 fold change in LL-37 (2 µg/ml LL-37, BHIS): 0.12 | CD630_26640 (murE) fold change in LL-37 (2 µg/ml LL-37, BHIS): 0.35 | CD630_26650 fold change in LL-37 (2 µg/ml LL-37, BHIS): 0.43 | CD630_26691 fold change in LL-37 (2 µg/ml LL-37, BHIS): 0.50 | CD630_26700 fold change in LL-37 (2 µg/ml LL-37, BHIS): 0.43 | CD630_26710 fold change in LL-37 (2 µg/ml LL-37, BHIS): 0.38 | CD630_26820 (pfo) fold change in LL-37 (2 µg/ml LL-37, BHIS): 2.03 | CD630_26860 fold change in LL-37 (2 µg/ml LL-37, BHIS): 0.41 | CD630_26870 fold change in LL-37 (2 µg/ml LL-37, BHIS): 0.46 | CD630_27090 fold change in LL-37 (2 µg/ml LL-37, BHIS): 2.37 | CD630_27250 fold change in LL-37 (2 µg/ml LL-37, BHIS): 2.07 | CD630_27491 fold change in LL-37 (2 µg/ml LL-37, BHIS): 0.38 | CD630_27500 (agrB) fold change in LL-37 (2 µg/ml LL-37, BHIS): 0.49 | CD630_27640 fold change in LL-37 (2 µg/ml LL-37, BHIS): 0.38 | CD630_27840 (cwp6) fold change in LL-37 (2 µg/ml LL-37, BHIS): 2.30 | CD630_27880 fold change in LL-37 (2 µg/ml LL-37, BHIS): 0.48 | CD630_28770 (fhuB) fold change in LL-37 (2 µg/ml LL-37, BHIS): 0.35 | CD630_28780 (fhuD) fold change in LL-37 (2 µg/ml LL-37, BHIS): 0.30 | CD630_29320 fold change in LL-37 (2 µg/ml LL-37, BHIS): 0.30 | CD630_29330 fold change in LL-37 (2 µg/ml LL-37, BHIS): 0.50 | CD630_29341 fold change in LL-37 (2 µg/ml LL-37, BHIS): 0.29 | CD630_29360 fold change in LL-37 (2 µg/ml LL-37, BHIS): 0.44 | CD630_29400 fold change in LL-37 (2 µg/ml LL-37, BHIS): 0.42 | CD630_29420 fold change in LL-37 (2 µg/ml LL-37, BHIS): 0.41 | CD630_29430 fold change in LL-37 (2 µg/ml LL-37, BHIS): 0.45 | CD630_29440 fold change in LL-37 (2 µg/ml LL-37, BHIS): 0.44 | CD630_29470 fold change in LL-37 (2 µg/ml LL-37, BHIS): 0.30 | CD630_29490 fold change in LL-37 (2 µg/ml LL-37, BHIS): 0.46 | CD630_29620 fold change in LL-37 (2 µg/ml LL-37, BHIS): 2.13 | CD630_29710 (bioY) fold change in LL-37 (2 µg/ml LL-37, BHIS): 0.45 | CD630_30250 fold change in LL-37 (2 µg/ml LL-37, BHIS): 0.47 | CD630_30260 fold change in LL-37 (2 µg/ml LL-37, BHIS): 0.45 | CD630_30270 fold change in LL-37 (2 µg/ml LL-37, BHIS): 0.25 | CD630_30340 fold change in LL-37 (2 µg/ml LL-37, BHIS): 0.38 | CD630_30360 fold change in LL-37 (2 µg/ml LL-37, BHIS): 0.39 | CD630_30720 fold change in LL-37 (2 µg/ml LL-37, BHIS): 0.41 | CD630_30990 fold change in LL-37 (2 µg/ml LL-37, BHIS): 0.40 | CD630_31000 fold change in LL-37 (2 µg/ml LL-37, BHIS): 0.36 | CD630_31150 (bglA4) fold change in LL-37 (2 µg/ml LL-37, BHIS): 0.37 | CD630_31360 (bglA7) fold change in LL-37 (2 µg/ml LL-37, BHIS): 0.35 | CD630_31370 (bglF5) fold change in LL-37 (2 µg/ml LL-37, BHIS): 0.39 | CD630_31750 (cggR) fold change in LL-37 (2 µg/ml LL-37, BHIS): 0.22 | CD630_32090 fold change in LL-37 (2 µg/ml LL-37, BHIS): 0.47 | CD630_32100 fold change in LL-37 (2 µg/ml LL-37, BHIS): 0.48 | CD630_32220 (sdaB) fold change in LL-37 (2 µg/ml LL-37, BHIS): 0.49 | CD630_32570 fold change in LL-37 (2 µg/ml LL-37, BHIS): 0.37 | CD630_32600 (phoU) fold change in LL-37 (2 µg/ml LL-37, BHIS): 0.49 | CD630_32620 (pstA) fold change in LL-37 (2 µg/ml LL-37, BHIS): 0.48 | CD630_33440 fold change in LL-37 (2 µg/ml LL-37, BHIS): 0.39 | CD630_33730 (mgtA) fold change in LL-37 (2 µg/ml LL-37, BHIS): 3.39 | CD630_33740 fold change in LL-37 (2 µg/ml LL-37, BHIS): 3.92 | CD630_33750 (mgtC) fold change in LL-37 (2 µg/ml LL-37, BHIS): 2.96 | CD630_33790 fold change in LL-37 (2 µg/ml LL-37, BHIS): 2.14 | CD630_33911 fold change in LL-37 (2 µg/ml LL-37, BHIS): 2.66 | CD630_35370 (phnH) fold change in LL-37 (2 µg/ml LL-37, BHIS): 0.39 | CD630_36010 fold change in LL-37 (2 µg/ml LL-37, BHIS): 0.35 | CD630_22290 fold change in LL-37 (2 µg/ml LL-37, BHIS (Table S5)): 0.51 | genes induced (sub-MIC LL-37, at least 2-fold, p < 0.05): 107 genes | genes differentially expressed at least 2-fold (sub-MIC LL-37, p < 0.05): 228 genes
